One series deals with rhodesain (Trypanosoma brucei rhodesiense, UniProt Q95PM0). Put plainly: biochemical. Conditions: read-out: rhodesain inhibition kinetics kinact/Ki.
The subject of series [1] is T. brucei brucei parasites.
The next series in a line: in vitro. Conditions: human, Jurkat cells.
Series [2] has as its system T. brucei brucei parasites. Kind of series: microbe, parasite or virus in culture. As to conditions: Trypanosoma brucei, read-out: parasite growth inhibition GI50 T.b.b parasites.
The next series relates to Jurkat cells. As to conditions: at 10 uM.
Another series addresses cruzain (Trypanosoma cruzi, UniProt P25779). As to conditions: initial survey of non-peptidic P2/P3 moieties.

Sequence of rhodesain (Q95PM0 1-450): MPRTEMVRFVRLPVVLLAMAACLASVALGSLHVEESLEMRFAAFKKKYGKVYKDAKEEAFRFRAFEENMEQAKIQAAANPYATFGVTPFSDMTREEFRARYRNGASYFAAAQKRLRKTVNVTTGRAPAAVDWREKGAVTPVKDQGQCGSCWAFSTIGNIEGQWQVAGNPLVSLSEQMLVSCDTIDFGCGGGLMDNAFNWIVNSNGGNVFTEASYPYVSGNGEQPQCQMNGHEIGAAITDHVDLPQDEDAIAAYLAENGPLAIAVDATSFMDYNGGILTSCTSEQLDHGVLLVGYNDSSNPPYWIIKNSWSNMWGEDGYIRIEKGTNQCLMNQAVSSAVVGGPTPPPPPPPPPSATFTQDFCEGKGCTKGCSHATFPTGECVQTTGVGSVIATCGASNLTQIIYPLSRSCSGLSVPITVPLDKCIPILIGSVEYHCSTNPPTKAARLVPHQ
Sequence of cruzain (P25779 123-467): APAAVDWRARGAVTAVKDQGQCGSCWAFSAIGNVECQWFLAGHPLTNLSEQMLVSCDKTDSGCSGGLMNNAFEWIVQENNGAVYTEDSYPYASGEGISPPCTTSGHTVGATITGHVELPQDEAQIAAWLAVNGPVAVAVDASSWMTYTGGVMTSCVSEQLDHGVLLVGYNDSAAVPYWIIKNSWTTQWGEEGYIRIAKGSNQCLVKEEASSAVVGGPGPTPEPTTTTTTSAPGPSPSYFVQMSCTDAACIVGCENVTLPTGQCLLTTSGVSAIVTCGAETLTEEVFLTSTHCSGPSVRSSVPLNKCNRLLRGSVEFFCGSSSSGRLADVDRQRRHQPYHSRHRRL

For `Cc1nc(-c2ccccc2)sc1C(=O)N[C@H](/C=C/S(=O)(=O)c1ccccc1)CCc1ccccc1` [3a], at rhodesain, the kinact/KI turned out to be 84000 M⁻¹ s⁻¹. In addition, the “effect against cultured parasites (in words)” value (from here on “effect”) in series [1] is given as “ineffective against cultured parasites”. In addition, the IC50 (commonly the concentration that inhibits the measured activity by half) in the series “in vitro” is greater than 100 µM.

In the case of `Cc1nc(-c2cccnc2)sc1C(=O)N[C@H](/C=C/S(=O)(=O)c1ccccc1)CCc1ccccc1` [3b], the “effect” value in series [1] is listed as “antiparasitic effects at low micromolar concentration”.

In the case of `Cc1nc(-c2cnccn2)sc1C(=O)N[C@H](/C=C/S(=O)(=O)c1ccccc1)CCc1ccccc1` [3c], at rhodesain, the kinact/KI turned out to be 25200 M⁻¹ s⁻¹. Also, in series [1], the “effect” value is listed as “antiparasitic effects at low micromolar concentration”. In the series “in vitro”, this molecule gave a concentration for half-maximal inhibition (IC50) greater than 100 µM.

For `O=C(N[C@H](/C=C/S(=O)(=O)c1ccccc1)CCc1ccccc1)c1cc(-c2ccccc2)no1` [4a], the kinact/KI at rhodesain worked out at 3610 M⁻¹ s⁻¹. For the same molecule, in series [1], the “effect” value is listed as “ineffective against cultured parasites”. The same molecule had an IC50 in the series “in vitro” greater than 100 µM.

`O=C(N[C@H](/C=C/S(=O)(=O)c1ccccc1)CCc1ccccc1)c1cc(-c2ccncc2)no1` [4b]: the kinact/KI on rhodesain stood at 8590 M⁻¹ s⁻¹. Also, the “effect” value in series [1] is reported as “antiparasitic effects at low micromolar concentration”. In addition, the IC50 in the series “in vitro” is greater than 100 µM.

In the case of `O=C(N[C@H](/C=C/S(=O)(=O)c1ccccc1)CCc1ccccc1)c1cc(-c2cccnc2)no1` [4c], in “in vitro”, the IC50 is greater than 100 µM.

In the case of `O=C(N[C@H](/C=C/S(=O)(=O)c1ccccc1)CCc1ccccc1)c1cc(-c2ccccn2)no1` [4d], the kinact/KI at rhodesain worked out at 7720 M⁻¹ s⁻¹. The “effect” value in series [1] is recorded as “antiparasitic effects at low micromolar concentration”. This molecule also showed an IC50 in the series “in vitro” greater than 100 µM.

On to `O=C(N[C@H](/C=C/S(=O)(=O)c1ccccc1)CCc1ccccc1)[C@@H]1CCCC[C@H]1C(=O)c1ccc(Cl)cc1` [7a], for which the GI50 (usually the concentration that inhibits growth by half) in series [2] turned out to be 12 µM. Further, on rhodesain, the kinact/KI was found to be 9750 M⁻¹ s⁻¹. For the same molecule, the IC50 in the series “in vitro” was greater than 100 µM.

In the case of `O=C(N[C@H](/C=C/S(=O)(=O)c1ccccc1)CCc1ccccc1)[C@H]1CCCC[C@@H]1C(=O)c1ccc(Cl)cc1` [7b], at rhodesain, the kinact/KI came to 2160 M⁻¹ s⁻¹.

Regarding `CN1CCN(C(=O)N[C@@H](Cc2ccccc2)C(=O)N[C@H](/C=C/S(=O)(=O)c2ccccc2)CCc2ccccc2)CC1` [K-777 (1)], the “cytotoxicity Jurkat cells, percent at single concentration” value in the series with Jurkat cells was 3% at 10 uM.

As for `Cc1onc(-c2ccc(F)cc2)c1C(=O)N[C@H](/C=C/S(=O)(=O)c1ccccc1)CCc1ccccc1` [compound 5], the “enzyme activity (in words)” value on cruzain was “ineffective”.

Consider `CC(C)(C)c1cc(C(=O)N[C@H](/C=C/S(=O)(=O)c2ccccc2)CCc2ccccc2)n(Cc2ccccc2)n1` [compound 6], for which the “enzyme activity (in words)” value at cruzain is reported as “ineffective”.

The values are drawn from article PMC3760505 (Bioorganic & medicinal chemistry letters, 2009).
